Values quoted from earlier work, collected in US9248110B2, “Compositions and methods of treating and preventing lung cancer and lymphangioleiomyomatosis” (priority 2010, dated 2016).
Like-named read-outs stand apart in the source and are kept apart here.

Tested on: Lewis lung LLC1 cells
Details: orally administered

Question: With `CN(C)C(=N)N=C(N)N` [metformin] as the compound, how does the tumor growth (mice fed a high-energy diet) read?
Answer: The tumor growth was “reduce tumor growth”.

Question: And the tumor growth (mice on a control diet)?
Answer: The tumor growth was “no effect on tumor growth”.
